Assay results as given in patent US9783509B2, “Six-membered C-N-linked aryl sulfide derivatives and aryl sulfoxide derivatives as pest conrol agents” (BAYER CROPSCIENCE AKTIENGESELLSCHAFT, priority 2013, dated 2017).

How the values were obtained:
[1] = tested on: green peach aphid (Myzus persicae); assay: Myzus persicae spray test (Chinese cabbage leaf discs); format: in vivo; conditions: application rate 500 g/ha, after 6 days
Protocol: Myzus persicae—Spray Test
Solvent: 78 parts by weight of acetone • • 1.5 parts by weight of dimethylformamide
(§1) Emulsifier: alkylaryl polyglycol ether
(§2) To produce an appropriate active ingredient formulation, 1 part by weight of active ingredient is dissolved using the specified parts by weight of solvent and made up with water containing an emulsifier concentration of 1000 ppm until the desired concentration is attained. To produce further test concentrations, the preparation is diluted with emulsifier-containing water.
Discs of Chinese cabbage leaves (Brassica pekinensis) infested by all stages of the green peach aphid (Myzus persicae) are sprayed with an active ingredient formulation of the desired concentration.
After 6 days, the efficacy in % is determined 100% means that all the aphids have been killed; 0% means that none of the aphids have been killed.

[2] = tested on: greenhouse red spider mite (Tetranychus urticae); assay: Tetranychus urticae spray test, OP-resistant (bean leaf discs); format: in vivo; conditions: application rate 500 g/ha, after 6 days
Procedure, shortened: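 Compound dissolved in acetone/DMF and diluted in water with 1000 ppm alkylaryl polyglycol ether emulsifier, then sprayed on bean leaf discs infested with all stages of OP-resistant T. urticae. Mortality in % scored after 6 days (100% = all mites killed).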

[3] = log P by reversed-phase HPLC analogously to OECD Guideline 117; format: physicochemical; conditions: for LogP[a]: [a] acidic range, pH 2.7, formic acid (or trifluoroacetic acid)/acetonitrile; for LogP[b]: [b] neutral range, pH 7.8, ammonium hydrogencarbonate/acetonitrile
Procedure, shortened: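 Retention on reversed-phase C18 HPLC (LC-MS), acidic runs at pH 2.7 with formic acid or trifluoroacetic acid/acetonitrile gradients, neutral runs at pH 7.8 with 0.001 molar ammonium hydrogencarbonate/acetonitrile. log P obtained by linear interpolation of retention times against unbranched alkan-2-ones (C3–C16) of known log P.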

[4] = tested on: greenhouse red spider mite (Tetranychus urticae); assay: Tetranychus urticae spray test, OP-resistant (bean plants); format: in vivo; conditions: application rate 20 ppm, after 7 days
Protocol: Tetranychus urticae—Spray Test, OP-Resistant
Solvent: 7 parts by weight of dimethylformamide
as §1
To produce an appropriate active ingredient formulation, 1 part by weight of active ingredient is dissolved using the specified parts by weight of solvent and made up with water containing an emulsifier concentration of 1000 ppm until the desired concentration is attained. To produce further test concentrations, the preparation is diluted with emulsifier-containing water. If the addition of ammonium salts or/and penetrants is required, these are each added in a concentration of 1000 ppm to the formulation solution.
Bean plants (Phaseolus vulgaris) heavily infested by all stages of the greenhouse red spider mite (Tetranychus urticae) are treated by spraying with the active ingredient formulation in the desired concentration.
After 7 days, the efficacy in % is determined. 100% means that all the spider mites have been killed; 0% means that none of the spider mites have been killed.

[5] = tested on: southern root-knot nematode (Meloidogyne incognita); assay: Meloidogyne incognita test (sand, lettuce, acetone solvent, 14 days); format: in vivo; conditions: application rate 20 ppm, after 14 days
Procedure, shortened: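 Active ingredient in acetone diluted with water, added to sand with nematode egg/larvae suspension and lettuce seeds. Efficacy scored after 14 days from root gall formation (100% = no galls; 0% = as untreated control).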

[6] = tested on: larvae of the mustard beetle (Phaedon cochleariae); assay: Phaedon cochleariae spray test; format: in vivo; conditions: application rate 500 g/ha, after 7 days
Protocol: Phaedon cochleariae—Spray Test
Solvent: 78.0 parts by weight of acetone • • 1.5 parts by weight of dimethylformamide
as §1, §2
Discs of Chinese cabbage leaves (Brassica pekinensis) are sprayed with an active ingredient formulation of the desired concentration and, after drying, populated with larvae of the mustard beetle (Phaedon cochleariae).
After 7 days, the efficacy in % is determined. 100% means that all the beetle larvae have been killed; 0% means that no beetle larvae have been killed.

| SMILES | efficacy (aphids killed) [1] | efficacy (spider mites killed) [2] | LogP[a] [3] | LogP[b] [3] | efficacy (spider mites killed) [4] | nematicidal efficacy (formation of galls) [5] | efficacy (beetle larvae killed) [6] |
| --- | --- | --- | --- | --- | --- | --- | --- |
| Cc1cc(F)c(-n2ncc(=O)n(Cc3cccnc3)c2=O)cc1SCC(F)(F)F [compound 43] | 90% | 90% | 2.36 | 2.87 |  |  |  |
| COCn1c(=O)ccn(-c2cc(SCC(F)(F)F)c(C)cc2F)c1=O [compound 80] |  |  | 2.62 | 2.66 | 100% | 100% |  |
| Cc1cc(F)c(-n2ncc(=O)n(CC3CC3)c2=O)cc1[S+]([O-])CC(F)(F)F (racemic) [compound 27] |  | 100% | 2.72 | 2.65 |  | 100% | 100% |
| Cn1c(=O)cnn(-c2ccc(Cl)c(SCC(F)(F)F)c2)c1=O [compound 32] | 90% | 100% | 2.18 | 2.16 |  |  |  |
| Cc1cc(F)c(-n2ncc(=O)n(CC3CC3)c2=O)cc1SCC(F)(F)F [compound 25] |  | 100% | 3.79 | 3.76 |  | 100% | 100% |
| Cc1cc(F)c(-n2ccc(=O)n(CC(F)F)c2=O)cc1SCC(F)(F)F [compound 82] |  |  | 2.99 | 3.06 | 100% | 100% |  |
| Cc1cc(F)c(-n2ncc(=O)n(Cc3cccnc3)c2=O)cc1[S+]([O-])CC(F)(F)F (racemic) [compound 49] | 90% |  | 1.47 | 2.00 |  |  |  |
| Cc1cc(F)c(-n2ncc(=O)n(CC#N)c2=O)cc1[S+]([O-])CC(F)(F)F (racemic) [compound 44] | 90% |  | 2.02 | 1.96 | 95% |  |  |
| C#CCn1c(=O)ccn(-c2cc(SCC(F)(F)F)c(C)cc2F)c1=O [compound 79] |  | 90% | 2.78 | 2.81 |  | 100% | 100% |
| Cc1cc(F)c(-n2ncc(=O)n(Cc3ccc[n+]([O-])c3)c2=O)cc1[S+]([O-])CC(F)(F)F (racemic) [compound 48] | 90% |  | 1.51 | 1.45 |  |  |  |
| Cc1cc(C)c([S+]([O-])CC(F)(F)F)cc1-n1ncc(=O)n(CC(F)(F)F)c1=O (single isomer, unassigned) [compound 47] |  |  | 2.72 | 2.66 | 100% |  |  |
| Cc1cc(F)c(-n2ncc(=O)n(Cc3ccccc3)c2=O)cc1[S+]([O-])CC(F)(F)F (racemic) [compound 45] |  |  | 3.00 | 2.9 | 90% |  |  |
